The values below come from patent publication US11311543B2, “Compositions and methods for inhibiting PTPN22” (YALE UNIVERSITY, priority 2016, dated 2022).

In data set [1] the test system is SHIP1. As to the kind of experiment: Phosphorylation kinetics of SHIP1 in RAMOS cells after BCR triggering (immunoblot). In kind it is cell-based, human. The note with it: LTV-1 5 μg/mL. As for the experimental part: FIG. 40A depicts the phosphorylation of SHIP1, Lyn and ERK1/2 in total cell lysates of Ramos B cells treated or not with the PTPN22 inhibitor LTV-1 (5 μg/mL) for the indicated times. The cells were subjected to immunoblot analysis of P-LYN P-SHIP1, P-ERK1/2, and β-ACTIN. FIG. 40B depicts flow cytometry analysis of calcium flux of Ramos B cells treated or not with the PTPN22 inhibitor LTV-1 (5 μg/mL) for the indicated times followed by stimulation with anti-IgM F(ab′)2 at the indicated concentrations. FIG. 40C depicts flow cytometry analysis of calcium flux of splenocyte cells treated or not with LTV-1 (0.75 mg) twice daily for 7 days and stimulated with anti-IgM F(ab′)2 (25 μg/mL). FIG. 40D depicts flow cytometry analysis of calcium flux of splenocyte expressing PTPN22 shRNA and stimulated with anti-IgM F(ab′)2 (25 μg/mL).
However, downstream ERK phosphorylation was not affected by PTPN22 inhibition (FIG. 40A). Since PTPN22 inhibition enhanced TCR signaling in Jurkat cell line, it was investigated if PTPN22 blockade may also increase BCR signaling and calcium flux induced by BCR triggering was measured in RAMOS cells in the presence or not of LTV-1. Calcium flux was increased by PTPN22 inhibition, especially at lower concentration of BCR triggering agent (FIG. 40B). […]
A general note: A western blot detects proteins with antibodies after separation by electrophoresis.

Data set [2] concerns the target T1, PTPN22 (Homo sapiens, UniProt Q9Y2R2).
T1 construct: host or cells: T cells (not further specified)
T1 sequence (Q9Y2R2 1-807): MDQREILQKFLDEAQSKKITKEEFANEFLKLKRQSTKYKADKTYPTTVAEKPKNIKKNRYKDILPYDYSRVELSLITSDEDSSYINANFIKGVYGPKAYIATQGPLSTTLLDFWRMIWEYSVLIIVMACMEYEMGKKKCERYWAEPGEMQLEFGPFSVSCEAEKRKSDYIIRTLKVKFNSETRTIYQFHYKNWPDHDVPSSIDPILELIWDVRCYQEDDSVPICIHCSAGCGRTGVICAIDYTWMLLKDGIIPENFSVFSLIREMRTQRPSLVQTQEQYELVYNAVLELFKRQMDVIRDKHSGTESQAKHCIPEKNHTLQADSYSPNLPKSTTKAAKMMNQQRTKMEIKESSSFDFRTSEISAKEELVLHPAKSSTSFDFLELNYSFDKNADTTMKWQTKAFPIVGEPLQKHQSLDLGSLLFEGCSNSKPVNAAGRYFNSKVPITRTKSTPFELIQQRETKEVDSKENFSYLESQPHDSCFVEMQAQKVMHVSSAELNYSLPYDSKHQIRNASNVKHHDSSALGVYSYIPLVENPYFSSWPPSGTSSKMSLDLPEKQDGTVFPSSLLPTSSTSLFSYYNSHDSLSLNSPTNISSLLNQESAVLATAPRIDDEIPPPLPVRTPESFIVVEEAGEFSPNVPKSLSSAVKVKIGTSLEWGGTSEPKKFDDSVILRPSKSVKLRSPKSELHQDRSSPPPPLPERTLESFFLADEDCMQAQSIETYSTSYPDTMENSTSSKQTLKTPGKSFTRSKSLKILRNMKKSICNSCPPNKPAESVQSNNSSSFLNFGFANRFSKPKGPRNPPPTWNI
The conditions noted are these: Vang et al., 2012; cited from earlier work.

Data set [3] has as its system PTPN22. As to the kind of experiment: PTPN22 expression by western blot in shRNA-transduced RAMOS B cell line. In kind it is cell-based. The note with it: human RAMOS B cell line, GFP+ shRNA+ vs GFP-. As for the experimental part: FIG. 10A depicts flow cytometry analysis of Ramos B cells transduction efficiency. Ramos B cells were transduced with three different GFP-tagged shRNA PTPN22 expressing lentiviruses and probed for GFP expression. […] Percentage of knock-down is indicated. FIG. 10B depicts the frequencies of polyreactive new emigrant B cells from sorted GFP− fractions were determined. […] For each B-cell fraction, the frequency of reactive (filled area) and non-reactive (open area) clones is summarized in pie charts with the total number of clones tested indicated in the center. FIG. 10C depicts the frequencies of HEp-2 reactive new emigrant B cells from sorted GFP− fractions were determined. […] For each B-cell fraction, the frequency of reactive (filled area) and non-reactive (open area) clones is summarized in pie charts with the total number of clones tested indicated in the center. FIG. 10D depicts the frequencies of antinuclear new emigrant B cells are compared between GFP− and GFP+ shRNA+ new emigrant B cells. […]
Total cell lysates were separated by SDS page, transferred to PVDF membranes, probed with mouse anti-PTPN22 (Invitrogen) and detected by chemiluminescence (Amersham ECL Prime Western Blotting detection Reagent) using a GBox documentation system (Syngene). For quantification, blots were stripped with stripping buffer (Pierce) and reprobed with a mouse anti-β-Actin antibody (Sigma-Aldrich).

Consider `Cc1ccccc1N1C(=O)/C(=C/c2ccc(OCc3cccc(C(=O)O)c3)cc2)C(=O)NC1=S` [LTV-1], for which the “phosphorylation of SHIP1 at position Y2010” value in data set [1] was “decreases”. Further, in data set [2], the “PTPN22 enzymatic activity in T cells in vitro” value is on record as “can be inhibited”.

Consider “shRNA #1: shRNA targeting human PTPN22, 5′-CTAGTGCTCTTGGTGTATATT-3′, delivered by GFP-tagged lentivirus”, for which the “inhibition of PTPN22 expression detected by western blot” value in data set [3] is on record as “about 80%”.
